# From article PMC3731359 (PLoS ONE, 2013)
# Ends that are not written are not given here. * marks the point of attachment. Biotin = O=C1N[C@H]2[C@H](CS[C@H]2CCCCC(=O)*)N1
# T1: NAE (Homo sapiens, UniProt Q13564+Q8TBC4)
# T1 construct: made in house; host or cells: E. coli BL21(DE3)pLysS
# T1 sequence (Q8TBC4 22-463 limits assumed): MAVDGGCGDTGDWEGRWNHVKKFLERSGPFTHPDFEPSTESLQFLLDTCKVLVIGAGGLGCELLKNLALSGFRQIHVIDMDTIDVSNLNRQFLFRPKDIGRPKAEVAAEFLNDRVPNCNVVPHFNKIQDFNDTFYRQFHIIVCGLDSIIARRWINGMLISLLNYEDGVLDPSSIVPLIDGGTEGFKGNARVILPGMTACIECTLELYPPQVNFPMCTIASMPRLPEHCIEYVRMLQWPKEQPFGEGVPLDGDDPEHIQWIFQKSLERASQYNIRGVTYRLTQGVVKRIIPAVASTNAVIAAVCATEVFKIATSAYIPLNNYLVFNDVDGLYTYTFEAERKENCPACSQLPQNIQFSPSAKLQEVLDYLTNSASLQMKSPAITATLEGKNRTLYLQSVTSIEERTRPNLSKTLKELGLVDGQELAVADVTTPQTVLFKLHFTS
# T1 sequence (Q13564 1-534 partner): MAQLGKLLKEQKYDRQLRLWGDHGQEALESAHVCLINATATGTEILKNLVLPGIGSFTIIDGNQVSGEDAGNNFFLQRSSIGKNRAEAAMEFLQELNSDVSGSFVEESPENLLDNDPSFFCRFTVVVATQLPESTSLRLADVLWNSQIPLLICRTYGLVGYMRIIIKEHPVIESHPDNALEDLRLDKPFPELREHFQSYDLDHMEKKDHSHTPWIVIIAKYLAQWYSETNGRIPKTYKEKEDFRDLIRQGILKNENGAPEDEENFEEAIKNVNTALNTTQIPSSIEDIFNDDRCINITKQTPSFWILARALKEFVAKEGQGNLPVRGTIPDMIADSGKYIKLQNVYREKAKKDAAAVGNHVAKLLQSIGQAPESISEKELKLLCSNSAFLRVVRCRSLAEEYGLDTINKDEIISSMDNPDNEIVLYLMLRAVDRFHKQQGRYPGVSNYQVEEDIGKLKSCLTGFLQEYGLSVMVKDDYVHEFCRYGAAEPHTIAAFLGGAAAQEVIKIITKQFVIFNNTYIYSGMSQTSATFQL
# T2: Ubc12 (UniProt P61081 1-183)
# T2 construct: also called E2; source: expressed and purified as previously reported [33]
# T2 sequence (looked up): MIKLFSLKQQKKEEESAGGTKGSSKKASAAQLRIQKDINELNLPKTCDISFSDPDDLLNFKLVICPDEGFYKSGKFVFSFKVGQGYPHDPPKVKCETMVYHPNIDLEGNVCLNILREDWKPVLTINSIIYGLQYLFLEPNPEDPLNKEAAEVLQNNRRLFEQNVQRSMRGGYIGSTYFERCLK
# Assays:
# [1] = molecular target: T1, NAE; details: cited from earlier work
# Excerpt: […] binds to the nucleotide binding pocket of NAE as an AMP analog with a sulfamate ...
# [2] = system: Ubc12 (E2); test: Western blot: transfer of UB variants to Ubc12; format: biochemical; details: 5 µM HA-tagged protein, 1 µM NAE, 1 µM Ubc12, 1 µM cullin, 1 mM ATP, 1 h, room temperature, anti-HA Western blot
# Experimental: (§1) Figure 6 Transfer of phage selected UB variants to NAE (E1), Ubc12 (E2), and cullin-3. HA-tagged wt UB, wt Nedd8 and UB variants were used in the assay. In the control reaction, either Ubc12 or cullin-3 in complex with Rbx1 was missing. The blots were probed with a mouse anti-HA antibody and a goat anti-mouse IgG antibody linked to HRP.
# (§2) 20 µL of the reaction mixture were loaded on a 4–15% SDS-PAGE gel (Bio-Rad). After electrophoresis, the protein bands were electroblotted onto a piece of polyvinylidene fluoride membrane (Bio-Rad). The membrane was blocked with 3% BSA in TBS buffer for 1 hour followed by incubation with 3% BSA in TBS buffer containing 1∶500 diluted 200 µg/mL anti-HA antibody (Santa Cruz Biotechnology) and 1∶10,000 diluted anti-mouse horseradish peroxidase conjugate (Pierce) for 1 hour, respectively. The membrane was then washed 5 times with TBS-T buffer and 5 times with TBS buffer followed by detection with the ECL luminescent detection kit (GE Healthcare).
# [3] = system: NAE (E1); test: Western blot: formation of UB∼NAE thioester conjugates; format: biochemical; details: 5 µM HA-tagged protein, 1 µM NAE, 1 mM ATP, 1 h, room temperature, anti-HA Western blot
# Experimental: as §1, §2
# [4] = system: cullin-3; test: Western blot: transfer of UB variants to cullin-3; format: biochemical; details: 5 µM HA-tagged protein, 1 µM NAE, 1 µM Ubc12, 1 µM cullin, 1 mM ATP, 1 h, room temperature, anti-HA Western blot
# Experimental: as §1, §2
# [5] = molecular target: T1, NAE; details: Arg72Ala mutant of UB by site directed mutagenesis; cited from earlier work
# [6] = molecular target: T2, Ubc12; test: thioester conjugate formation (SDS-PAGE, Western blot); 5 µM biotin labeled peptide with 1 µM NAE, 1 µM Ubc12 and 1 µM cullin, 1 mM ATP, 10 mM MgCl2, 50 µM DTT, TBS, 1 hour, room temperature; streptavidin-HRP blot; covalent conjugates; details: both partners purified
molecule,measurement,setting,value
NS(=O)(=O)OC[C@@H]1C[C@@H](n2ccc3c(N[C@H]4CCc5ccccc54)ncnc32)C[C@@H]1O [MLN4924],inhibition of NAE,[1],potent inhibitor of NAE
"N26: UB variant with single Arg72Ala mutation, C-terminal sequence 71LALRGG76",transfer from NAE to Ubc12 (UB∼Ubc12 conjugates),[2],efficiently forms UB∼Ubc12 conjugates
same,formation of UB∼NAE conjugates,[3],can function as the wt Nedd8 for thioester formation with NAE and Ubc12
same,transfer to cullin (cullin modification),[4],substantial cullin modification at a level similar or exceeding that of wt Nedd8
same,activity with NAE,[5],previously found to be active with NAE
"{Biotin-LC-LC}-VLALRGG (also called pN26 conjugated to biotin; source: synthetic peptide (EZBiolab), labelled with NHS-LC-LC-biotin, HPLC purified) [biotin-pN26 (VLALRGG)]",binding result,[6],binds
